Tests used:
[1] = test system: N171-82Q HD mice; experiment: Rotarod experiment, HD mice; format: in vivo, mouse; details: 5 mg/kg/d intragastric
Procedure: 7-week-old N171-82Q HD male mice were paired with female B6C3F1/J hybrid mice to obtain newborn mice. From 21 days of age, male mice were housed in separate cages. 0.5 cm of mouse tail tissue was removed to extract DNA to determine the genotype of the mouse, such that N171-82Q HD mice and WT mice needed for the experiment were obtained. The mice were randomly divided into WT Vehicle group (normal mice), WT test compound group (administration group of normal mice, 5 mg/kg/d, n=10), HD Vehicle group (blank group of HD mice, n=15), HD test compound group (administration groups 1-5 of HD mice, 5 mg/kg/d, n=10). The test compound was suspended in 1% CMC-Na solution and administered by intragastric administration until the end of the study. The weights of the mice were measured every week. Behavioral tests were performed at 12 weeks, 18 weeks, and 24 weeks of age to investigate motor function. At 20 weeks, 3 samples of tissue from each group were used for western blotting and immunohistochemistry. At 24 weeks, MRI scans were performed. At the end of the study, the effect of the test compound on the mortality of mice was evaluated.
The software Sigmaplot 13.0 was used for statistical analysis of the data, and the data of each group was expressed as mean standard error (x±SEM). Behavioral test results were analyzed using two-way (genotype and processing factor) ANOVA and post-ho tests, the comparison and statistics of weight data were performed using two-way (genotype and age) ANOVA of repeated measures, and mortality was counted using Kaplan-Meier method. Other measurement data were analyzed by one-way ANOVA. P<0.05 was considered statistically significant.
The motor function of mice was evaluated by the rotarod experiment and three types of balance beam experiments. The shorter the time for mouse to cross the balance beam, and the longer the time to drop, the stronger the coordination ability of the mouse.
The maximum time for mice fatigue rotarod was set to 5 minutes, and the acceleration was set from 4 rpm up to 40 rpm. Time record was began when the mouse was placed on the rotarod. The time the mouse remained on the rod, i.e., drop latent period, was recorded to indicate its motor coordination ability. One day before the rotarod experiment, each mouse was trained for 5 minutes, and then rested in the cage after the training session. On the day of the experiment, the mice were placed on the rotating rotarod for three rounds of tests, with a 30-minute rest between tests before entering the next round of test. The result was the average of the three tests.

[2] = test system: rats with permanent cerebral ischemia; experiment: Neurobehavioral scoring in rats with permanent cerebral ischemia (MCAO thread plug); format: in vivo, SD rats; details: 20 mg/kg by gavage
Procedure: (§1) SD rats, male, about 220-250 g, were provided by the Experimental Animal Center of Medical College of Xi'an Jiaotong University. Rats were randomly divided into groups of 14 animals/group. The experiment included a sham group, a model group, a positive control Edaravone group and test compound groups 1-5.12 hours before the operation, the rats were fasted and were free to drink water, and then used for the modeling method of middle cerebral artery occlusion with thread plug. The rats were fixed on a wooden board after anesthesia, the common carotid artery was ligated proximally, the external carotid artery was ligated distally, and the main internal carotid artery into skull was retained. A ligature line was reserved at the bifurcation of the internal carotid artery for temporarily clamping the distal end of the internal carotid artery using an arterial clip. A 3-0 nylon thread with a length of 5 cm and a spherical shape with a diameter of 0.3 mm at the tip was inserted into the common carotid artery through a small incision at the bifurcation. The arterial clamp was loosened, and the thread plug was slowly advanced to 18˜20 mm. When there was resistance, the progress of the thread was stopped. At this time, the nylon thread plug entered the middle artery and blocked the blood flow, and then the ischemic phase began. The skin was sutured. In the sham operation group, the same procedure was executed, except that no thread plug was inserted.
(§2) Administering was performed at 0 h, 3 h, 6 h and 12 h after ischemia, and then administering was performed once a day for 7 consecutive days. The test compound was prepared into a 4 mg/mL solution with 1% CMC-Na solution and administered by gavage. The edaravone group received an intravenous dose of 0.078 mg/kg.
2) The rats were lifted at its tail about 1 foot off the ground to observe the condition of both forelimbs. The rats were placed on a level ground and pushed on both shoulders to observe the difference in resistance on both sides. The rats were placed on the ground to observe the walking. The assessment was conducted using a five-grade four-point scoring method (0 to 4 points). The higher the score, the more severe the neurobehavioral damage.
0 point: the behavior is completely normal;
1 point: when the rat is lifted at its tail off the ground, the forelimb on the opposite side of the operation rotates and folds inwardly.
2 points: when the rat is placed on a level ground and pushed on both shoulders to observe the difference in resistance on both sides, the resistance on the opposite side of the operation reduces;
3 points: when the rat is placed on the ground to the walking, it circles around the opposite side of the operation;
4 points: The injury is so severe that the rat is unable to move independently.
(§3) (2) Statistical analysis of data: SPSS18.0 statistical software was used for statistical analysis and the data of each group was expressed as the mean standard error (x±SEM). One-way ANOVA and multiple comparisons between groups were used to compare the averages of measurement data among multiple groups. Rank score test was used for behavioral grading data, and Kaplan-Meier method was used for mortality. P<0.05 was considered statistically significant.

[3] = test system: rats with permanent cerebral ischemia; experiment: Cerebral infarction volume by TTC staining in rats with permanent cerebral ischemia; format: in vivo, SD rats; details: 20 mg/kg by gavage, after 7 days of ischemia
Procedure: as §1, §2
3) Percentage of cerebral infarction volume after 7 days of ischemia: TTC staining was used to observe the infarct area.
The rats in each group were sacrificed by spinal dislocation […]. The brain tissue was quickly peeled off and placed in the refrigerator at −20° C. to freeze to an appropriate hardness to remove the olfactory bulb, cerebellum and low brain stem. Continuous coronary slices were performed at 1 mm intervals, to obtain a total of 5 slices. The slices were placed in 0.5% triphenyltetrazolium chloride (TTC) in phosphate buffer (pH=7.4) and incubated in a 37° C. incubator without light for 15 min, and then fixed in paraformaldehyde and observed (fixed time should be within 24 h). The normal brain tissue is rosy red, and infarcted brain tissue is pale. After taking the picture, the slice was scanned to save the image. The area of cerebral infarction and the total area of slices were calculated using Image J processing software.
Cerebral infarction volume (%)=(volume of the contralateral hemisphere of the operation−volume of the uninfarcted portion of the hemisphere of the occlusion)/volume of the contralateral hemisphere of the operation×100%
as §3

**Q.** What does the source list for O=c1cc(-c2ccc(N3CCCCC3)cc2)oc2c(O)c(O)ccc12 [Example 1, 7,8-dihydroxy-2-(4-(piperidin-1-yl)phenyl)-4H-chromen-4-one]?
**A.** Time to drop (drop latent period), rotarod ([1]; 12 w): 95.90 ± 23.32 s; Time to drop (drop latent period), rotarod ([1]; 18 w): 101.03 ± 32.39 s; Time to drop (drop latent period), rotarod ([1]; 24 w): 83.55 ± 29.07 s; Neurobehavioral score (0 to 4 points) ([2]; 6 h after ischemia): 2.07 ± 0.22; Neurobehavioral score (0 to 4 points) ([2]; 1 d after ischemia): 2.11 ± 0.2; Neurobehavioral score (0 to 4 points) ([2]; 2 d after ischemia): 1.88 ± 0.35; Neurobehavioral score (0 to 4 points) ([2]; 3 d after ischemia): 2.13 ± 0.23; Neurobehavioral score (0 to 4 points) ([2]; 4 d after ischemia): 1.88 ± 0.35; Neurobehavioral score (0 to 4 points) ([2]; 5 d after ischemia): 2 ± 0.38; Neurobehavioral score (0 to 4 points) ([2]; 6 d after ischemia): 1.86 ± 0.34; Neurobehavioral score (0 to 4 points) ([2]; 7 d after ischemia): 1.17 ± 0.17; Volume percentage of cerebral infarction [3]: 19.58 ± 9.56%

**Q.** Which “Time to drop (drop latent period), rotarod” value (“Time to drop” for short) ([1]; 12 w) does the source give for COc1ccc2c(=O)cc(-c3ccc(N4CCCCC4)cc3)oc2c1OC [Example 2, 7,8-dimethoxy-2-(4-(piperidin-1-yl)phenyl)-4H-chromen-4-one] here?
**A.** Its value is 98.89 ± 21.35 s.

**Q.** And the “Time to drop” value ([1]; 18 w)?
**A.** Its value is 107.40 ± 27.48 s.

**Q.** And the “Time to drop” value ([1]; 24 w)?
**A.** The value was 89.67 ± 30.76 s.

**Q.** And the “Neurobehavioral score (0 to 4 points)” value ([2]; 6 h after ischemia)?
**A.** The value was 2.13 ± 0.17.

**Q.** And the “Neurobehavioral score (0 to 4 points)” value ([2]; 1 d after ischemia)?
**A.** The value was 2.04 ± 0.13.

**Q.** What about the “Neurobehavioral score (0 to 4 points)” value ([2]; 2 d after ischemia) of the same molecule?
**A.** The value was 2.20 ± 0.25.

**Q.** And the “Neurobehavioral score (0 to 4 points)” value ([2]; 3 d after ischemia)?
**A.** The value was 1.98 ± 0.45.

**Q.** And the “Neurobehavioral score (0 to 4 points)” value ([2]; 4 d after ischemia)?
**A.** Its value is 1.87 ± 0.27.

**Q.** And the “Neurobehavioral score (0 to 4 points)” value ([2]; 5 d after ischemia)?
**A.** The value was 2.11 ± 0.16.

**Q.** What about the “Neurobehavioral score (0 to 4 points)” value ([2]; 6 d after ischemia) of the same molecule?
**A.** The value was 1.79 ± 0.28.

**Q.** What about the “Neurobehavioral score (0 to 4 points)” value ([2]; 7 d after ischemia) of the same molecule?
**A.** Its value is 1.21 ± 0.22.

**Q.** What about the “Volume percentage of cerebral infarction” value [3] of the same molecule?
**A.** The value was 19.93 ± 8.89%.

**Q.** Which results are given for CN(C)C1CCN(c2ccc(-c3cc(=O)c4ccc(O)c(O)c4o3)cc2)CC1 [Example 3, 2-(4-(4-(dimethylamino)piperidin-1-yl)phenyl)-7,8-dihydroxy-4H-chromen-4-one]?
**A.** Time to drop (drop latent period), rotarod ([1]; 12 w): 94.15 ± 30.15 s; Time to drop (drop latent period), rotarod ([1]; 18 w): 103.40 ± 37.86 s; Time to drop (drop latent period), rotarod ([1]; 24 w): 90.06 ± 33.45 s; Neurobehavioral score (0 to 4 points) ([2]; 6 h after ischemia): 1.98 ± 0.25; Neurobehavioral score (0 to 4 points) ([2]; 1 d after ischemia): 2.23 ± 0.34; Neurobehavioral score (0 to 4 points) ([2]; 2 d after ischemia): 1.91 ± 0.26; Neurobehavioral score (0 to 4 points) ([2]; 3 d after ischemia): 1.87 ± 0.33; Neurobehavioral score (0 to 4 points) ([2]; 4 d after ischemia): 1.74 ± 0.26; Neurobehavioral score (0 to 4 points) ([2]; 5 d after ischemia): 1.63 ± 0.20; Neurobehavioral score (0 to 4 points) ([2]; 6 d after ischemia): 1.78 ± 0.34; Neurobehavioral score (0 to 4 points) ([2]; 7 d after ischemia): 1.01 ± 0.27; Volume percentage of cerebral infarction [3]: 20.93 ± 7.65%

**Q.** For CC1(C)CCN(c2ccc(-c3cc(=O)c4ccc(O)c(O)c4o3)cc2)CC1 [Example 4, 2-(4-(4,4-dimethylpiperidin-1-yl)phenyl)-7,8-dihydroxy-4H-chromen-4-one], which “Time to drop” value ([1]; 12 w) is on record?
**A.** The value was 95.09 ± 27.23 s.

**Q.** And the “Time to drop” value ([1]; 18 w)?
**A.** The value was 99.86 ± 30.27 s.

**Q.** What about the “Time to drop” value ([1]; 24 w) of the same molecule?
**A.** Its value is 79.15 ± 34.17 s.

**Q.** And the “Neurobehavioral score (0 to 4 points)” value ([2]; 6 h after ischemia)?
**A.** Its value is 2.23 ± 0.36.

**Q.** And the “Neurobehavioral score (0 to 4 points)” value ([2]; 1 d after ischemia)?
**A.** Its value is 1.99 ± 0.36.

**Q.** And the “Neurobehavioral score (0 to 4 points)” value ([2]; 2 d after ischemia)?
**A.** The value was 1.85 ± 0.45.

**Q.** And the “Neurobehavioral score (0 to 4 points)” value ([2]; 3 d after ischemia)?
**A.** Its value is 2.23 ± 0.36.

**Q.** What about the “Neurobehavioral score (0 to 4 points)” value ([2]; 4 d after ischemia) of the same molecule?
**A.** Its value is 1.54 ± 0.27.

**Q.** What about the “Neurobehavioral score (0 to 4 points)” value ([2]; 5 d after ischemia) of the same molecule?
**A.** The value was 1.78 ± 0.11.

**Q.** And the “Neurobehavioral score (0 to 4 points)” value ([2]; 6 d after ischemia)?
**A.** The value was 1.68 ± 0.27.

**Q.** What about the “Neurobehavioral score (0 to 4 points)” value ([2]; 7 d after ischemia) of the same molecule?
**A.** The value was 1.12 ± 0.23.

**Q.** And the “Volume percentage of cerebral infarction” value [3]?
**A.** The value was 21.33 ± 7.68%.

**Q.** Which results are given for CC1CC(C)CN(c2ccc(-c3cc(=O)c4ccc(O)c(O)c4o3)cc2)C1 (stereo not drawn) [Example 5, 2-(4-(3,5-dimethylpiperidin-1-yl)phenyl)-7,8-dihydroxy-4H-chromen-4-one]?
**A.** Time to drop (drop latent period), rotarod ([1]; 12 w): 98.19 ± 29.17 s; Time to drop (drop latent period), rotarod ([1]; 18 w): 101.03 ± 32.39 s; Time to drop (drop latent period), rotarod ([1]; 24 w): 81.71 ± 30.15 s; Neurobehavioral score (0 to 4 points) ([2]; 6 h after ischemia): 2.03 ± 0.29; Neurobehavioral score (0 to 4 points) ([2]; 1 d after ischemia): 1.86 ± 0.44; Neurobehavioral score (0 to 4 points) ([2]; 2 d after ischemia): 1.75 ± 0.25; Neurobehavioral score (0 to 4 points) ([2]; 3 d after ischemia): 1.94 ± 0.23; Neurobehavioral score (0 to 4 points) ([2]; 4 d after ischemia): 1.85 ± 0.34; Neurobehavioral score (0 to 4 points) ([2]; 5 d after ischemia): 1.93 ± 0.20; Neurobehavioral score (0 to 4 points) ([2]; 6 d after ischemia): 1.72 ± 0.44; Neurobehavioral score (0 to 4 points) ([2]; 7 d after ischemia): 1.19 ± 0.30; Volume percentage of cerebral infarction [3]: 20.50 ± 6.38%

— US20200390755A1, “COMPOUND FOR TREATING NERVOUS SYSTEM DISEASES AND USE THEREOF” (SHAANXI MICOT TECHNOLOGY CO., LTD., priority 2018, published 2020)
